# Test results published in patent US10106534B2 (CELGENE QUANTICEL RESEARCH, INC., priority 2014, dated 2018).
# Target: JMJD2C (Homo sapiens (Human), UniProt Q9H3R0)
# Assay: In vitro enzyme inhibition assay for JMJD2C activity (TR-FRET)
# Format: biochemical
# Description: This assay determines the ability of a test compound to inhibit JMJD2C demethylase activity. Baculovirus expressed JMJD2C (GenBank Accession #BC143571, AA 2-372) was purchased from BPS Bioscience (Cat#50105).
# The ability of test compounds to inhibit the activity of JMJD2C was determined in 384-well plate format under the following reaction conditions: 0.3 nM JMJD2C, 300 nM H3K9me3-biotin labeled peptide (Anaspec cat #64360), 2 μM alpha-ketoglutaric acid in assay buffer of 50 mM HEPES, pH7.3, 0.005% Brij35, 0.5 mM TCEP, 0.2 mg/ml BSA, 50 μM sodium L-ascorbate, and 2 μM ammonium iron(II) sulfate. Reaction product was determined quantitatively by TR-FRET after the addition of detection reagent Phycolink Streptavidin-allophycocyanin (Prozyme) and Europium-anti-di-methylated histone H3 lysine 9 (H3K9me2) antibody (PerkinElmer) in the presence of 5 mM EDTA in LANCE detection buffer (PerkinElmer) at a final concentration of 50 nM and 1 nM, respectively.
# The assay reaction was initiated by the following: 2 μl of the mixture of 900 nM H3K9me3-biotin labeled peptide and 6 μM alpha-ketoglutaric acid with 2 μl of 11-point serial diluted inhibitor in 3% DMSO were added to each well of the plate, followed by the addition of 2 μl of 0.9 nM JMJD2C to initiate the reaction. The reaction mixture was incubated at room temperature for 30 minutes, and terminated by the addition of 6 μl of 5 mM EDTA in LANCE detection buffer containing 100 nM Phycolink Streptavidin-allophycocyanin and 2 nM Europium-anti-H3K9me2 antibody. Plates were read by EnVisionMultilabel Reader in TR-FRET mode (excitation at 320 nm, emission at 615 nm and 665 nm) after 1 hour incubation at room temperature. A ratio was calculated (665/615) for each well and fitted to determine inhibition constant (IC50).
# Chain of JMJD2C (Q9H3R0 2-372): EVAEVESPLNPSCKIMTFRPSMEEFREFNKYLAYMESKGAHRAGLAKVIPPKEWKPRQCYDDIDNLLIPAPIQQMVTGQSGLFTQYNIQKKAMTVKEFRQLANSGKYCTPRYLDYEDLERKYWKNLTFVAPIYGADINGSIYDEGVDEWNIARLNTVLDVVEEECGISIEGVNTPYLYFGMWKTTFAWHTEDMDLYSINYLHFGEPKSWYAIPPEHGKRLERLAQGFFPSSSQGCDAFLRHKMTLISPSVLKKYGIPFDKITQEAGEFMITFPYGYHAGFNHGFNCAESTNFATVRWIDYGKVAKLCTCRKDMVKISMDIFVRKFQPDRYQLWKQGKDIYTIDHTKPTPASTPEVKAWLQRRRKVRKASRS
row,SMILES,IC50
1,"Cc1ccccc1Oc1ccc2c(c1)CCC[C@@H]2CNc1cnccc1C(=O)O [Example 57, 3-({[(1S)-6-(2-methylphenoxy)-1,2,3,4-tetrahydronaphthalen-1-yl]methyl}amino)pyridine-4-carboxylic acid]",1000 to 10000 nM
2,"O=C(O)c1ccncc1NC[C@H]1CCCc2cc(OC(F)F)ccc21 [Example 60, 3-({[(1S)-6-(difluoromethoxy)-1,2,3,4-tetrahydronaphthalen-1-yl]methyl}amino)pyridine-4-carboxylic acid]",1000 to 10000 nM
3,"O=C(O)c1ccncc1NCC1CCCc2cc(Oc3ccccc3C(F)(F)F)ccc21 (centres unmarked) [Example 62, 3-[({6-[2-(trifluoromethyl)phenoxy]-1,2,3,4-tetrahydronaphthalen-1-yl}methyl)amino]pyridine-4-carboxylic acid]",1000 to 10000 nM
4,"Cc1cccc(Sc2ccc3c(c2)CCC[C@@H]3CNc2cnccc2C(=O)O)c1 [Example 68, 3-({[(1S)-6-[(3-methylphenyl)sulfanyl]-1,2,3,4-tetrahydronaphthalen-1-yl]methyl}amino)pyridine-4-carboxylic acid]",1000 to 10000 nM
5,"Cc1ccccc1Sc1ccc2c(c1)CCC[C@@H]2CNc1cnccc1C(=O)O [Example 70, 3-({[(1S)-6-[(2-methylphenyl)sulfanyl]-1,2,3,4-tetrahydronaphthalen-1-yl]methyl}amino)pyridine-4-carboxylic acid]",1000 to 10000 nM
6,"O=C(O)c1ccncc1NC[C@H]1CCCc2cc(Sc3ccccc3F)ccc21 [Example 72, 3-({[(1S)-6-[(2-fluorophenyl)sulfanyl]-1,2,3,4-tetrahydronaphthalen-1-yl]methyl}amino)pyridine-4-carboxylic acid]",1000 to 10000 nM
7,"O=C(O)c1ccncc1NC[C@H]1CCCc2cc(Sc3cccc(F)c3)ccc21 [Example 74, 3-({[(1S)-6-[(3-fluorophenyl)sulfanyl]-1,2,3,4-tetrahydronaphthalen-1-yl]methyl}amino)pyridine-4-carboxylic acid]",1000 to 10000 nM
8,"O=C(O)c1ccncc1NC[C@H]1CCCc2cc(Sc3ccc(F)cc3)ccc21 [Example 76, 3-({[(1S)-6-[(4-fluorophenyl)sulfanyl]-1,2,3,4-tetrahydronaphthalen-1-yl]methyl}amino)pyridine-4-carboxylic acid]",1000 to 10000 nM
9,"Cc1ccc(Sc2ccc3c(c2)CCC[C@@H]3CNc2cnccc2C(=O)O)cc1 [Example 78, 3-({[(1S)-6-[(4-methylphenyl)sulfanyl]-1,2,3,4-tetrahydronaphthalen-1-yl]methyl}amino)pyridine-4-carboxylic acid]",1000 to 10000 nM

# Next, values leading:
row,IC50,SMILES
1,1000 to 10000 nM,"Cc1c(F)cccc1-c1ccc2c(c1)OCC[C@@H]2CNc1cnccc1C(=O)O [Example 41, 3-({[(4S)-7-(3-fluoro-2-methylphenyl)-3,4-dihydro-2H-1-benzopyran-4-yl]methyl}amino)pyridine-4-carboxylic acid]"
2,1000 to 10000 nM,"O=C(O)c1ccncc1NC[C@H]1CCOc2cc(Oc3ccccc3)ccc21 [Example 47, 3-({[(4S)-7-phenoxy-3,4-dihydro-2H-1-benzopyran-4-yl]methyl}amino)pyridine-4-carboxylic acid]"
3,1000 to 10000 nM,"Cc1ccccc1Sc1ccc2c(c1)OCC[C@@H]2CNc1cnccc1C(=O)O [Example 50, 3-({[(4S)-7-[(2-methylphenyl)sulfanyl]-3,4-dihydro-2H-1-benzopyran-4-yl]methyl}amino)pyridine-4-carboxylic acid]"
4,100 to 1000 nM,"O=C(O)c1ccncc1NC[C@@H]1CCCc2cc(Sc3cccc(F)c3)ccc21 [Example 75, 3-({[(1R)-6-[(3-fluorophenyl)sulfanyl]-1,2,3,4-tetrahydronaphthalen-1-yl]methyl}amino)pyridine-4-carboxylic acid]"
5,100 to 1000 nM,"O=C(O)c1ccncc1NC[C@H]1CCCc2cc(S(=O)(=O)c3ccccc3)ccc21 [Example 81, 3-({[(1S)-6-(benzenesulfonyl)-1,2,3,4-tetrahydronaphthalen-1-yl]methyl}amino)pyridine-4-carboxylic acid]"
